Source: ChEMBL document CHEMBL5537109, “Natural products as potential lead compounds to develop new antiviral drugs over the past decade” (Eur J Med Chem, 2023)
Values after ≈ are worked out from the molar mass of the structure shown.

What was measured:
Huh-7 = experiment: Cytotoxicity against human Huh-7 cells assessed as reduction in cell viability incubated for 72 hrs by MTT assay; assay type: functional
HEK-293T = experiment: Cytotoxicity against human HEK293T cells assessed as cell growth inhibition measured after 72 hrs by MTT assay; assay type: functional
SARS-CoV-2 = experiment: Antiviral activity against SARS-CoV-2 infected in African green monkey Vero cells assessed as reduction in viral replication; assay type: functional, organism-based; settings: Severe acute respiratory syndrome coronavirus 2, Vero
[1] = Cytotoxicity against African green monkey Vero cells assessed as reduction in cell viability measured after 72 hrs by MTS assay; assay type: toxicity, cell-based; settings: chlorocebus sabaeus
[2] = system: Human immunodeficiency virus 1; experiment: Anti-HIV activity against HIV-1 IIIB infected in human C8166 cells assessed as inhibition of virus-induced cytopathic effect by MTT assay; assay type: functional, organism-based; settings: Human immunodeficiency virus 1, IIIB
[3] = Cytotoxicity against human C8166 cells assessed as inhibition of cell growth incubated for 48 hrs by MTT assay; assay type: toxicity, cell-based
RAW264.7 = experiment: Cytotoxicity against mouse RAW264.7 cells assessed as reduction in cell viability incubated for 24 hrs by CCK-8 method; assay type: functional
[4] = system: Human immunodeficiency virus 1; experiment: Antiviral activity against HIV-1 harboring reverse transcriptase infected in human MT4 cells assessed as reduction in virus-induced cytopathic effect; assay type: functional, organism-based; settings: Human immunodeficiency virus 1, MT4
[5] = system: Human immunodeficiency virus 1; experiment: Antiviral activity against HIV-1 3B harboring reverse transcriptase infected in human C8166 cells assessed as protection against virus-induced cytopathic effect incubated for 5 days by MTT assay; assay type: functional, organism-based; settings: Human immunodeficiency virus 1, 3B, C8166, 120 h
[6] = Cytotoxicity against human C8166 cells assessed as inhibition of cell growth by MTT assay; assay type: toxicity, cell-based
[7] = Cytotoxicity against African green monkey Vero E6 cells assessed as reduction in cell growth incubated for 24 hrs by WST-8 assay; assay type: toxicity, cell-based, Vero C1008; settings: chlorocebus sabaeus
Influenza A virus [8] = experiment: Antiviral activity against influenza A virus H5N1 infected in dog MDCK cells assessed as viral growth inhibition; assay type: functional, organism-based
[9] = Inhibition of Influenza A virus A/California/04/2009 (H1N1) N-terminal his tagged domain of PA endonuclease expressed in Escherichia coli BL21 (DE3) cells
Influenza A virus [10] = experiment: Antiviral activity against influenza A virus H1N1(A/PR/8/34) infected in MDCK cells assessed as inhibition of cytopathic effect incubated for 48 hrs by MTT assay; assay type: functional, organism-based
[11] = Cytotoxicity against MDCK cells assessed as inhibition of cell growth incubated for 48 hrs by MTT assay; assay type: toxicity, cell-based, Canis lupus familiaris; settings: dog
Influenza A virus [12] = experiment: Antiviral activity against influenza A virus A/Hong Kong/1/68 (HK1, H3N2) infected in dog MDCK cells assessed as cytopathic effect; assay type: functional, organism-based
[13] = biological target: Human immunodeficiency virus type 1 reverse transcriptase (Human immunodeficiency virus 1, UniProt Q72547); experiment: Inhibition of HIV1 reverse transcriptase
[14] = system: Human immunodeficiency virus 1; experiment: Antiviral activity against HIV-1 3B harboring reverse transcriptase infected in human MT4 cells assessed as protection against virus-induced cytopathic effect incubated for 5 days by MTT assay; assay type: functional, organism-based; settings: Human immunodeficiency virus 1, 3B, MT4, 120 h
[15] = system: Human immunodeficiency virus 1; experiment: Antiviral activity against HIV-1 3B infected in human MT4 cells assessed as inhibition of viral replication incubated for 5 days by MTT assay; assay type: functional, organism-based; settings: Human immunodeficiency virus 1, 3B, MT4, 120 h
[16] = system: Human immunodeficiency virus 1; experiment: Antiviral activity against wild-type HIV-1 NL4-3 infected in human MT4 cells assessed as inhibition of viral growth by measuring reduction in p24 antigen level incubated for 3 to 7 days by ELISA analysis; assay type: functional, organism-based; settings: Human immunodeficiency virus 1, NL4-3, MT4
[17] = biological target: Human immunodeficiency virus type 1 protease (Human immunodeficiency virus 1, UniProt Q72874); experiment: Inhibition of HIV-1 protease
[18] = system: Human immunodeficiency virus 1; experiment: Antiviral activity against HIV-1 infected in human MT4 cells assessed as reduction in viral replication; assay type: functional; settings: Human immunodeficiency virus 1, MT4
Human alphaherpesvirus 1 [19] = experiment: Antiviral activity against HSV-1 assessed as inhibition of viral growth; assay type: functional, organism-based
Human alphaherpesvirus 1 [20] = experiment: Antiviral activity against HSV-1 KOS infected in African green monkey Vero cells assessed as reduction in virus induced cytopathogenicity by plaque reduction assay; assay type: functional, organism-based; settings: Human alphaherpesvirus 1, KOS
[21] = Cytotoxicity against African green monkey Vero cells assessed as reduction in cell viability measured after 72 hrs by MTT assay; assay type: toxicity, cell-based; settings: chlorocebus sabaeus

Structure (SMILES): CC[C@H]1CN2CCc3cc(OC)c(OC)cc3[C@@H]2C[C@@H]1C[C@H]1NCCc2cc(O)c(OC)cc21 [CEPHAELINE]
- CC50 (Huh-7): 3.03 µM
- CC50 (HEK-293T): 2 µM
- EC50 (SARS-CoV-2): 0.0123 µM
- CC50 at 72 h [1]: 46.3 µM

Structure (SMILES): C[C@H]1CC(=O)[C@@H]2CCCN(C)CCCC(=O)/C(=N\O)C[C@@H]2C1
- EC50 [2]: 52.9 µg/mL
- CC50 at 48 h [3]: > 200 µM

Structure (SMILES): C=C(C)[C@@]1(OC(C)=O)[C@H](OC(C)=O)[C@@H]2[C@H](OC(C)=O)[C@@]3(C)O[C@@]4([C@@H]3O)[C@@H](OC(=O)c3ccccc3)[C@@H](C)C[C@H]4[C@@]2(O)[C@H](C)[C@@H]1OC(=O)c1ccccc1
- CC50 (RAW264.7): > 200 µM
- EC50 [4]: 0.21 µM

Structure (SMILES): COc1cc2oc(CO)cc(=O)c2c(O)c1CC=C(C)C
- EC50 [5]: 0.96 µM
- CC50 [6]: > 200 µM

Structure (SMILES): O=c1c(O)c(-c2cc(O)c(O)c(O)c2)oc2cc(O)cc(O)c12 [MYRICETIN]
- CC50 at 24 h [7]: > 200 µM

Structure (SMILES): O=C(OC[C@H]1O[C@@H](Oc2ccc(O)cc2C(=O)O)[C@H](O)[C@@H](OC(=O)c2cc(O)c(O)c(O)c2)[C@@H]1O)c1cc(O)c(O)c(O)c1
- IC50 (Influenza A virus [8]): 11.6 µM
- IC50 [9]: 29.2 µM
- EC50 (Influenza A virus [10]): 20.2 µM
- CC50 at 48 h [11]: 964 µM
- EC50 (Influenza A virus [12]): 33.3 µM

Structure (SMILES): COc1cccc2c1-c1c3c(c(OC)c4cc[n+]([O-])c(c14)C2=O)OCO3
- EC50 [2]: 2.18 µM
- CC50 at 48 h [3]: 56.6 µM

Structure (SMILES): COc1cc(OC)c([N+](=O)[O-])c2c1-c1c3c(c(OC)c4c1[C@@H](C2)NCC4)OCO3
- EC50 [2]: 1.93 µM
- CC50 at 48 h [3]: 28.7 µM

Structure (SMILES): COc1cc(C)c(Cc2cc3c([nH]c4ccccc43)c3c2OC(C)(C)C=C3)c2c1[nH]c1ccccc12
- IC50 [13]: 0.0186 µM
- CC50 at 48 h [3]: > 200 µM

Structure (SMILES): C=CC(C)(C)c1cc2cc(C[C@@H](OC)C(C)(C)O)c(OC)cc2oc1=O
- EC50 [14]: 0.33 µM
- CC50 [6]: > 200 µM

Structure (SMILES): O[C@H]1[C@H]2c3cc4c(cc3CN3CCC(=C[C@@H]1O)[C@H]23)OCO4 [LYCORINE]
- CC50 (Huh-7): 0.834 µM
- CC50 (HEK-293T): 1.04 µM
- EC50 (SARS-CoV-2): 0.439 µM
- CC50 at 72 h [1]: > 1000 µM

Structure (SMILES): C=CC(CO)[C@@H]1C[C@H]2c3[nH]c4ccccc4c3CCN2C(=O)[C@@H]1CO (stereo partly drawn)
- EC50 [15]: 0.23 µM
- CC50 at 48 h [3]: > 200 µM

Structure (SMILES): O=C1C=C2C[C@H](O[C@H]3C[C@@]45OC(=O)C=C4C[C@@H]3N3CCCC[C@H]35)[C@@H]3C[C@@]2(O1)[C@H]1CCCN31
- EC50 [16]: 120 µM

Structure (SMILES): C=C(C)[C@]12C[C@@H](COC(C)=O)[C@@]3(OO1)[C@@H]1[C@H]2OCCCCCC[C@@H](C)[C@H]2[C@H](C)[C@H](OC(=O)c4ccccc4)[C@@](O)([C@H](O)[C@@]4(CO)O[C@@H]14)[C@@H]23
- IC50 [17]: 4.3 µM
- EC90 [18]: 0.0004 µM

Structure (SMILES): C=C(C)[C@]12C[C@@H](COC(C)=O)[C@@]34OC5(O[C@@H]1[C@@H]3[C@@H]1O[C@]1(CO)[C@@H](O)[C@@]1(O)[C@H]4[C@H]([C@H](C)[C@@H]1OC(=O)c1ccccc1)[C@H](C)C[C@H](OC(=O)c1ccccc1)[C@H](OC(=O)c1ccccc1)CCC[C@H]5O)O2
- EC50 [16]: 0.00025 µM

Structure (SMILES): C=C(C)[C@@]1(OC(=O)c2ccccc2)[C@H](OC(C)=O)[C@@H]2[C@H](OC(C)=O)[C@@]3(C)O[C@@]4([C@@H]3OC(C)=O)[C@@H](OC(=O)c3ccccc3)[C@@H](C)C[C@H]4[C@@]2(O)[C@H](C)[C@@H]1OC(C)=O
- CC50 (RAW264.7): > 200 µM
- EC50 [4]: 0.18 µM

Structure (SMILES): CC[C@H]1CN2CCc3cc(OC)c(OC)cc3[C@@H]2C[C@@H]1C[C@H]1NCCc2cc(OC)c(OC)cc21 [EMETINE]
- CC50 (Huh-7): 33.4 µM
- CC50 (HEK-293T): 37.8 µM
- EC50 (SARS-CoV-2): 7.71 µM
- CC50 at 72 h [1]: 2.17 µM

Structure (SMILES): C/C=C1/C[N+]23CCc4c([nH]c5ccccc45)[C@@H]2C[C@H]1C3C(=O)[O-] (stereo partly drawn)
- EC50 (Human alphaherpesvirus 1 [19]): 1.09 µg/mL (≈ 3.53 µM)

Structure (SMILES): COc1ccc2c(c1)N=C1c3cc(-c4nccc5c4[nH]c4cc(OC)ccc45)c(C)n3CCC12O (racemic)
- EC50 (Human alphaherpesvirus 1 [20]): 2.12 µM
- CC50 at 72 h [21]: 74.2 µM

Structure (SMILES): O=C(O[C@H]1[C@H](Oc2ccc(O)cc2C(=O)O)O[C@H](CO)[C@@H](O)[C@@H]1OC(=O)c1cc(O)c(O)c(O)c1)c1cc(O)c(O)c(O)c1
- IC50 (Influenza A virus [8]): 24.6 µM
- IC50 [9]: 30.7 µM
- EC50 (Influenza A virus [10]): 30.7 µM
- CC50 at 48 h [11]: > 1000 µM
- EC50 (Influenza A virus [12]): 28.2 µM
